The text below walks through data of US11976083B2, “Inhibitors of peptidylarginine deiminases” (Gilead Sciences, Inc., priority 2020, dated 2024).

T1 sequence (Q9UM07 2-663): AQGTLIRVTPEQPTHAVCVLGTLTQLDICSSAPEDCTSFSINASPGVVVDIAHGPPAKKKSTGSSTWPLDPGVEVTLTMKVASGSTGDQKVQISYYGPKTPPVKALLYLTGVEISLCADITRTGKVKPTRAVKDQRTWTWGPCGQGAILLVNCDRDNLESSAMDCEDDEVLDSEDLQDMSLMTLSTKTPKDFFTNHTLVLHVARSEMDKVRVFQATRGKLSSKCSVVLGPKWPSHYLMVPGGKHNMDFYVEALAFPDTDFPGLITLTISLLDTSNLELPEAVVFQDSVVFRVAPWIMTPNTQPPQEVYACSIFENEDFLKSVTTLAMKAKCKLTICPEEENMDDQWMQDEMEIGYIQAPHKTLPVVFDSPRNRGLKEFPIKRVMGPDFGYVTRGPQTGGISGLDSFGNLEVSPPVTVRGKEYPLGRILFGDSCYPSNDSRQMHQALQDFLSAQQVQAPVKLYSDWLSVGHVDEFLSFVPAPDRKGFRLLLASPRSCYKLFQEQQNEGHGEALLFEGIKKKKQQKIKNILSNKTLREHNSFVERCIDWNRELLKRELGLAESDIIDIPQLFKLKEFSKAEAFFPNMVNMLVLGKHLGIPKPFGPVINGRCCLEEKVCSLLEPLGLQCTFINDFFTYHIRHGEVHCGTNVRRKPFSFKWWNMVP

The assay has as its target T1, human PAD4 (Homo sapiens, UniProt Q9UM07).
T1 construct: human PAD4 (NM_012387), A2-P663, was PCR amplified; His-SUMO (N, cleaved yes); made in house; host or cells: E. coli BL21(DE3)
Description: In vitro PAD4 BAEE biochemical assay. To be noted: BAEE substrate 3 mM, 5 nM PAD4, 2 mM calcium chloride; geometric mean of multiple experiments. A digest of the protocol: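 Fluorescence read-out (ex 405/em 535 nm) of isoindole formed from ammonia, o-phthalaldehyde and DTT after EDTA stop. Reaction: 5 nM PAD4, 2 mM CaCl2, 3 mM BAEE, 2 h, 25 °C, after 30 min enzyme–compound preincubation. Normalised to BB-Cl-Amidine (50 µM) and DMSO controls.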
What is called IC50 is the concentration at which inhibition is half-maximal. As for `C[C@H]1NC(=O)c2cnc(C(F)F)cc2CCCCCn2c(-c3nc4cc(C(=O)N5C[C@H](N)[C@@H]6CC[C@H]5C6)cc(F)c4n3C3CC3)cc3ccc1nc32` [Example 674, (2~{R})-17-[5-[(1~{S},4~ {R},5~{R})-4-amino-2-azabicyclo[3.2.1]octane-2-carbonyl]-1-cyclopropyl-7-fluoro-benzimidazol-2-yl]-8-(difluoromethyl)-2-methyl-3,7,16,22-tetrazatetracyclo[14.5.2.0^ {5,10).0^{19,23}]tricosa-1(22),5(10),6,8,17,19(23), 20-heptaen-4-one], the IC50 stood at 17 nM.
As for `COc1cc(C(=O)N2CC[C@@H](OC)[C@@H](N)C2)cc2nc(-c3cc4ccc5nc4n3CCCCCCNC(=O)c3ncccc3-5)n(C)c12` [Example 675, 17-[5-[(3~{S},4~{R})-3-amino-4-methoxy-piperidine-1-carbonyl]-7-methoxy-1-methyl-benzimidazol-2-yl]-6,9,16,22-tetrazatetracyclo [14.5.2.0^{2,7}.0^{19,23}] tricosa-1(22),2,4,6,17,19(23), 20-heptaen-8-one], the figure is 559 nM; as for `COc1cc(C(=O)N2CC[C@@H](C)[C@@H](N)[C@@H]2C)cc2nc(-c3cc4ccc5nc4n3CC(F)(F)CCC[C@@H]3C[C@H]3C(=O)N[C@@H]5C)n(C)c12` [Example 676, (2~{R},5~{R},7~{R})-14-[5-[(2~{S},3~{R},4~ {R})-3-amino-2,4-dimethyl-piperidine-1-carbonyl]-7-methoxy-1-methyl-benzimidazol-2-yl]-11,11-difluoro-2-methyl-3,13,19-triazatetracyclo[11.5.2.0^ {5,7}.0^{16,20}] icosa-1(19),14,16(20), 17-tetraen-4-one], 83 nM.
Turning to `COC[C@H]1CCN(C(=O)c2cc(OC)c3c(c2)nc(-c2cc4ccc5nc4n2CCCCCCC(C)(C)C(=O)N[C@@H]5C)n3C)C[C@@H]1N` [Example 677, (11~{R})-17-[5-[(3~ {R},4~{S})-3-amino-4-(methoxymethyl)piperidine-1-carbonyl]-7-methoxy-1-methyl-benzimidazol-2-yl]-8,8,11-trimethyl-1,10,19-triazatricyclo [10.5.2.0^{15,18}] nonadeca-12(19),13,15 (18),16-tetraen-9-one], the IC50 was 82 nM.
As for `COc1cc(C(=O)N2C[C@H](N)[C@H](O)[C@@H](F)C2)cc2nc(-c3cc4ccc5nc4n3CC(F)(F)CCC[C@@H]3C[C@H]3C(=O)N[C@@H]5C)n(C)c12` [Example 678, (2~{R},5~{R},7~{R})-14-[5-[(3~{S},4~{S},5~ {S})-3-amino-5-fluoro-4-hydroxy-piperidine-1-carbonyl]-7-methoxy-1-methyl-benzimidazol-2-yl]-11,11-difluoro-2-methyl-3,13,19-triazatetracyclo[11.5.2.0^ {5,7}.0^{16,20}]icosa-1(19), 14,16(20),17-tetraen-4-one], the figure is 15 nM; as for `COc1cc(C(=O)N2CCC[C@@H](N)[C@H]2C)cc2nc(-c3cc4ccc5nc4n3CC(F)(F)CCCc3cncc(F)c3C(=O)N[C@@H]5C)n(C)c12` [Example 679, (2~{R})-17-[5-[(2~{R},3~ {R})-3-amino-2-methyl-piperidine-1-carbonyl]-7-methoxy-1-methyl-benzimidazol-2-yl]-6,14,14-trifluoro-2-methyl-3,8,16,22-tetrazatetracyclo[14.5.2.0^ {5,10).0^{19,23}] tricosa-1(22),5(10),6,8,17, 19(23),20-heptaen-4-one], 33 nM; as for `COc1cc(C(=O)N2CC[C@@H](O)[C@@H](N)C2)cc2nc(-c3cc4ccc5nc4n3CC(F)(F)CCC[C@@H]3C[C@H]3C(=O)N[C@@H]5C)n(C)c12` [Example 680, (2~{R},5~{R},7~{R})-14-[5-[(3~{S},4~{R})-3-amino-4-hydroxy-piperidine-1-carbonyl]-7-methoxy-1-methyl-benzimidazol-2-yl]-11,11-difluoro-2-methyl-3,13,19-triazatetracyclo[11.5.2.0^ {5,7}.0^{16,20}]icosa-1(19), 14,16(20),17-tetraen-4-one], 34 nM.
As to `COc1cc(C(=O)N2C[C@H](N)[C@H](OC)[C@@H](F)C2)cc2nc(-c3cc4ccc5nc4n3CC(F)(F)CCC[C@@H]3C[C@H]3C(=O)N[C@@H]5C)n(C)c12` [Example 681, (2~{R},5~{R},7~{R})-14-[5-[(3~{S},4~{S}, 5~{S})-3-amino-5-fluoro-4-methoxy-piperidine-1-carbonyl]-7-methoxy-1-methyl-benzimidazol-2-yl]-11,11-difluoro-2-methyl-3,13,19-triazatetracyclo [11.5.2.0^{5,7}.0^{16,20}] icosa-1(19),14,16(20), 17-tetraen-4-one], the IC50 stood at 39 nM.
As for `C[C@H]1NC(=O)[C@@H]2C[C@@H]2CCCC(F)(F)Cn2c(-c3nc4cc(C(=O)N5C[C@H](N)[C@@H]6CC[C@H]5C6)cc(F)c4n3C3CC3)cc3ccc1nc32` [Example 682, (2~{R},5~{R},7~{S})-14-[5-[(1~{S},4~{R},5~{R})-4-amino-2-azabicyclo[3.2.1]octane-2-carbonyl]-1-cyclopropyl-7-fluoro-benzimidazol-2-yl]-11,11-difluoro-2-methyl-3,13,19-triazatetracyclo[11.5.2.0^ {5,7}.0^{16,20}] icosa-1(19),14,16(20), 17-tetraen-4-one], the figure is 28 nM; as for `C[C@@H]1c2ccc3cc(-c4nc5cc(C(=O)N6C[C@H](N)[C@@H]7CC[C@H]6C7)cc(F)c5n4C4CC4)n(c3n2)CC(F)(F)CCC[C@H]2C[C@H]2C(=O)N1C` [Example 683, (2~{R},5~{R},7~{S})-14-[5-[(1~{S},4~{R},5~ {R})-4-amino-2-azabicyclo[3.2.1]octane-2-carbonyl]-1-cyclopropyl-7-fluoro-benzimidazol-2-yl]-11,11-difluoro-2,3-dimethyl-3,13,19-triazatetracyclo [11.5.2.0^{5,7}.0^{16,20}] icosa-1(19),14,16(20), 17-tetraen-4-one], 16 nM.
For the compound `C[C@H]1NC(=O)C(C)(C)CCCCCn2c(-c3nc4cc(C(=O)N5C[C@H](N)[C@@H]6CC[C@H]5C6)cc(F)c4n3C3CC3)cc3ccc1nc32` [Example 684, (10~{R})-16-[5-[(1~{S}, 4~{R},5~{R})-4-amino-2-azabicyclo [3.2.1]octane-2-carbonyl]-1-cyclopropyl-7-fluoro-benzimidazol-2-yl]-7,7,10-trimethyl-1,9,18-triazatricyclo[9.5.2.0^ {14,17}]octadeca-11(18), 12,14(17),15-tetraen-8-one], the IC50 was determined as 20 nM.
On to `COc1ccc2c(n1)CCCCCn1c(-c3nc4cc(C(=O)N5C[C@H](N)[C@@H]6CC[C@H]5C6)cc(F)c4n3C3CC3)cc3ccc(nc31)[C@@H](C)NC2=O` [Example 685, (2~{R})-17-[5-[(1~{S},4~{R}, 5~{R})-4-amino-2-azabicyclo[3.2.1]octane-2-carbonyl]-1-cyclopropyl-7-fluoro-benzimidazol-2-yl]-8-methoxy-2-methyl-3,9,16,22-tetrazatetracyclo [14.5.2.0^{5,10}.0^{19, 23}]tricosa-1(22),5(10), 6,8,17,19(23),20-heptaen-4-one], for which the IC50 came to 13 nM.
With `COc1cc(C(=O)N2CC[C@@H](OC)[C@@H](N)C2)cc2nc(-c3cc4ccc5nc4n3CCCCCC[C@]3(CCCO3)C(=O)N[C@@H]5C)n(C)c12` [Example 686, (8~{S},11~{R})-17-[5-[(3~{S},4~{R})-3-amino-4-methoxy-piperidine-1-carbonyl]-7-methoxy-1-methyl-benzimidazol-2-yl]-11-methyl-spiro[1,10,19-triazatricyclo [10.5.2.0^{15,18}]nonadeca-12(19),13,15(18),16-tetraene-8,2′-tetrahydrofuran]-9-one] the figure was 44 nM; with `COc1cc(C(=O)N2CC[C@@H](OC)[C@@H](N)C2)cc2nc(-c3cc4ccc5nc4n3CCCCCC[C@@]3(CCCO3)C(=O)N[C@@H]5C)n(C)c12` [Example 687, (8~{R},11~{R})-17-[5-[(3~{S),4~{R})-3-amino-4-methoxy-piperidine-1-carbonyl]-7-methoxy-1-methyl-benzimidazol-2-yl]-11-methyl-spiro[1,10,19-triazatricyclo[10.5.2.0^ {15,18}]nonadeca-12(19),13,15(18),16-tetraene-8,2′-tetrahydrofuran]-9-one], 64 nM.
With `COc1cc(C(=O)N2CC[C@@H](OC)[C@@H](N)C2)cc2nc(-c3cc4ccc5nc4n3CCCCC[C@H]3C[C@]3(F)C(=O)N[C@@H]5C)n(C)c12` [Example 688, (2~{R},5~{R},7~{S})-14-[5-[(3~{S},4~{R})-3-amino-4-methoxy-piperidine-1-carbonyl]-7-methoxy-1-methyl-benzimidazol-2-yl]-5-fluoro-2-methyl-3,13,19-triazatetracyclo[11.5.2.0^ {5,7}.0^{16,20}]icosa-1(19), 14,16(20),17-tetraen-4-one] the figure was 719 nM; with `COc1cc(C(=O)N2CC[C@@H](OC)[C@@H](N)C2)cc2nc(-c3cc4ccc5nc4n3CCCCC[C@]3(F)C[C@H]3C(=O)N[C@@H]5C)n(C)c12` [Example 689, (2~{R},5~{S},7~{S})-14-[5-[(3~{S},4~{R})-3-amino-4-methoxy-piperidine-1-carbonyl]-7-methoxy-1-methyl-benzimidazol-2-yl]-7-fluoro-2-methyl-3,13,19-triazatetracyclo[11.5.2.0^ {5,7}.0^{16,20}]icosa-1(19),14,16(20),17-tetraen-4-one], 39 nM; with `CO[C@@H]1CCN(C(=O)c2ccc3c(c2)nc(-c2cc4ccc5nc4n2CC(F)(F)CCC[C@@H]2C[C@H]2C(=O)N[C@@H]5C)n3C2CC2)C[C@@H]1N` [Example 690, (2~{R},5~{R},7~{R})-14-[5-[(3~{S},4~{R})-3-amino-4-methoxy-piperidine-1-carbonyl]-1-cyclopropyl-benzimidazol-2-yl]-11,11-difluoro-2-methyl-3,13,19-triazatetracyclo [11.5.2.0^{5,7}.0^{16,20}] icosa-1(19),14,16(20), 17-tetraen-4-one], 54 nM.
